# Columns and labels:
# [1] = test system: 3T3-L1 adipocytes; assay: Intracellular Ca2+ in cultured adipocytes (fura-2); format: cell-based, mouse; conditions: H2O2 100 nmol/L, 4 hours; p<0.001
# Description: 3T3-L1 preadipocytes were incubated at a density of 8000 cells/cm^2 (10 cm^2 dish) and grown in Dulbecco's modified Eagle's medium (DMEM) containing 10% FBS and antibiotics (adipocyte medium) at 37° C. in 5% CO2 in air. Confluent preadipocytes were induced to differentiate with a standard differentiation medium consisting of DMEM-F10 (1:1, vol/vol) medium supplemented with 1% FBS, 1 μM dexamethasone, IBMX (0.5 mM) and antibiotics (1% Penicillin-Streptomycin). Preadipocytes were maintained in this differentiation medium for 3 days and subsequently cultured in adipocyte medium. Cultures were re-fed every 2-3 days to allow 90% of cells to reach full differentiation before conducting chemical treatment. Chemicals were freshly diluted in adipocyte medium before treatment. Cells were washed with fresh adipocyte medium, re-fed with medium containing the different treatments, and incubated at 37° C. in 5% CO2 in air before analysis. Cell viability was measured via trypan blue exclusion. [Ca^2+]i in adipocytes was measured using a fura-2 dual-wavelength fluorescence imaging system. Cells were plated in 35-mm dishes […]). […] Cells were loaded with fura-2 acetoxymethyl ester (fura-2 AM) (10 μmol/L) in the same buffer for 2 h at 37° C. in a dark incubator with 5% CO2. To remove extracellular dye, cells were rinsed with HBSS three times and then post-incubated at room temperature for an additional 1 h for complete hydrolysis of cytoplasmic fura-2 AM. The dishes with dye-loaded cells were mounted on the stage of Nikon TMS-F fluorescence inverted microscope with a Cohu model 4915 charge-coupled device (CCD) camera. Fluorescent images were captured alternatively at excitation wavelengths of 340 and 380 nm with an emission wavelength of 520 nm. After establishment of a stable baseline, the responses to 1α, 25-(OH)2-D3 was determined. [Ca^2+]i was calculated using a ratio equation as described previously. Each analysis evaluated responses of 5 representative whole cells. Images were analyzed with […]2 version 4.62 imaging software (Intracellular Imaging, Cincinnati, Ohio). […]
# [2] = test system: cyclin A; assay: Cyclin A expression in cultured adipocytes; format: cell-based, mouse; conditions: compound plus glucose 30 mmol/L, 48 hours
# Description: 3T3-L1 preadipocytes were incubated at a density of 8000 cells/cm^2 (10 cm^2 dish) and grown in Dulbecco's modified Eagle's medium (DMEM) containing 10% FBS and antibiotics (adipocyte medium) at 37° C. in 5% CO2 in air. Confluent preadipocytes were induced to differentiate with a standard differentiation medium consisting of DMEM-F10 (1:1, vol/vol) medium supplemented with 1% FBS, 1 μM dexamethasone, IBMX (0.5 mM) and antibiotics (1% Penicillin-Streptomycin). Preadipocytes were maintained in this differentiation medium for 3 days and subsequently cultured in adipocyte medium. Cultures were re-fed every 2-3 days to allow 90% of cells to reach full differentiation before conducting chemical treatment. Chemicals were freshly diluted in adipocyte medium before treatment. […] Cell viability was measured via trypan blue exclusion. Adipocyte 18s, cyclin A, NADPH oxidase, and UCP2 were quantitatively measured using a Smart Cycler Real Time PCR System (Cepheid, Sunnyvale, Calif.) with a TaqMan 1000 Core Reagent Kit (Applied Biosystems, Branchburg, N.J.). […] Reactions of quantitative RT-PCR for standards and unknown samples were also performed according to the instructions of Smart Cycler System (Cepheid, Sunnyvale, Calif.) and TaqMan Real Time PCR Core Kit (Applied Biosystems, Branchburg, N.J.). The mRNA quantitation for each sample was further normalized using the corresponding 18s quantitation.
# [3] = test system: macrophage inhibitory factor (MIF); assay: MIF expression in human adipocytes; format: cell-based; conditions: calcitriol 10 nmol/L, 48 hours; p=0.001
# From the text: Cell culture: Human preadipocytes used in this study were supplied by Zen-Bio (Research Triangle, N.C.). Preadipocytes were inoculated in DMEM/Ham's F-10 medium (DMEM-F10) (1:1, vol/vol) containing 10% FBS, 15 mmol/L HEPES, and antibiotics at a density of 30,000 cells/cm2. Confluent monolayers of preadipocytes were induced to differentiate with a standard differentiation medium consisting of DMEM-F10 (1:1, vol/vol) medium supplemented with 15 mmol/L HEPES, 3% FBS, 33 μmol/L biotin, 17 μmol/L pantothenate, 100 nmol/L insulin, […] methylisobutylxanthine, 1 μmol/L dexamethasone, 1 μmol/L BRL49653, and antibiotics. […]
# Cells were washed with fresh adipocyte medium, re-fed with medium containing the indicated treatments, and incubated at 37° C. in 5% CO2 for 48 hours before analysis. Cell viability was measured via trypan blue exclusion.
# Adipocyte and muscle 18s, CD14, TNFα, MIP, M-CSF, IL-6 and MCP-1 were quantitatively measured using a Smart Cycler Real Time PCR System (Cepheid, Sunnyvale, Calif.) with a TaqMan 1000 Core Reagent Kit (Applied Biosystems, Branchburg, N.J.). […] Reactions of quantitative RT-PCR for standards and unknown samples were also performed according to the instructions of Smart Cycler System (Cepheid, Sunnyvale, Calif.) and TaqMan Real Time PCR Core Kit (Applied Biosystems, Branchburg, N.J.). […]
# [4] = test system: fatty acid synthase; assay: Fatty acid synthase gene expression in adipocytes; format: cell-based, murine; conditions: p<0.05
# From the text: The adipose tissue-skeletal muscle endocrine axis may play a potential role in regulating metabolic energy partitioning. […] However, the effect of leucine and calcium, in regulating this process is unclear. Accordingly, present study was designed to investigate the effect of leucine, calcitriol and calcium on energy metabolism in murine adipocytes and muscle cells.
# [5] = test system: C2C12 myotubes; assay: IL-15 release by myotubes (ELISA); format: cell-based, murine; conditions: C2C12 myotubes, 48 hours
# Description: IL-15 release in the medium was determined using ELISA. Data are corrected for DNA content. Values are presented as mean±SEM, n=6. Means with different letter differ with p<0.05.
SMILES,increase in [Ca2+]i [1] [fold],effect on glucose stimulated cyclin A expression [2],increase in MIF expression [3] [%],increase in adipocyte FAS gene expression [4] [fold],effect on IL-15 release [5]
"OO [H2O2, hydrogen peroxide]",5,,,,
"C=C1/C(=C\C=C2/CCC[C@]3(C)[C@@H]([C@H](C)CCCC(C)(C)O)CC[C@@H]23)C[C@@H](O)C[C@@H]1O [calcitriol, 1,25-(OH)2-D3]",,augmented,59,3,inhibitory effects
